Consider 5 molecules from ChEMBL document CHEMBL1201862, “PubChem BioAssay data set” (2004).

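Step 1: Grow cells in 96-well plates. Step 2: Expose to compound for 48 hours at 5 concentrations. Step 3: Interpolate endpoints linearly; if unreached, use highest concentration. At the GI50, growth is halved.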 Activity calls are given as the source filed them. Rule as the data show it: active = GI50 up to about 1.1 µM and inactive = higher.

Some test systems named below: OVCAR-3; UACC-62; SF-539; NCI-H522; MOLT-4; CAKI-1; RPMI-8226; LOX IMVI; EKVX; HCT-15; NCI-H226; DMS-273; U-251; OVCAR-5; CCRF-CEM; KM12.
Test in all cases: inhibition of tumour cell growth, NCI panel, 48 h

`CCCCCC(=O)OC[n+]1ccc2c(C)c3[nH]c4ccccc4c3c(C)c2c1`: the GI50 was 1.19 µM (inactive) in the experiment with OVCAR-3; 1.56 µM (inactive) in the experiment on UACC-62; 0.817 µM (active) in the experiment on SF-539; 1.49 µM (inactive) in the experiment with NCI-H522; 0.327 µM (active) in the experiment on MOLT-4; 1.82 µM (inactive) in the experiment on CAKI-1. Moreover, the GI50 in the experiment with RPMI-8226 is 0.288 µM (active); in the experiment with LOX IMVI, 0.514 µM (active); in the experiment on EKVX, 0.628 µM (active); in the experiment on HCT-15 it was 0.389 µM; with NCI-H226 it was 1.32 µM (inactive); in the experiment with DMS-273, 0.141 µM (active). For the same molecule, the figures for the GI50 with U-251 and in the experiment on OVCAR-5 were 0.656 µM (active) and 1.28 µM (inactive), respectively.
In the case of `C/C(=N\NC(=O)CC(=O)Nc1ccc(C)cc1)c1cc2ccccc2oc1=O`, the GI50 in the experiment with OVCAR-3, with UACC-62, in the experiment on SF-539, with NCI-H522, with MOLT-4 and with CCRF-CEM was > 100 µM (inactive) throughout. Besides, the GI50 with RPMI-8226 was > 100 µM (inactive); in the experiment with LOX IMVI, > 100 µM (inactive); in the experiment on EKVX, > 100 µM (inactive); in the experiment with HCT-15, more than 100 µM; in the experiment with KM12, > 100 µM (inactive); with NCI-H226 it was > 100 µM (inactive). The GI50 with DMS-273 and in the experiment on U-251 was > 100 µM (inactive) in each case.
Take `CN(C(=O)c1cccs1)C(=S)N1CCN(c2ccccn2)CC1`: the GI50 in the experiment with OVCAR-3, in the experiment on UACC-62, in the experiment on SF-539, in the experiment on NCI-H522, with MOLT-4 and in the experiment on CAKI-1 was > 100 µM (inactive) in each case. Moreover, the GI50 was > 100 µM (inactive) in the experiment with CCRF-CEM; > 100 µM (inactive) in the experiment with RPMI-8226; > 100 µM (inactive) in the experiment with LOX IMVI; more than 100 µM with HCT-15; > 100 µM (inactive) with KM12; > 100 µM (inactive) in the experiment with NCI-H226. Moreover, the GI50 in the experiment on DMS-273, in the experiment on U-251 and with OVCAR-5 was > 100 µM (inactive) each time.
Turning to `O=C1CCCCCCCCCCC(=O)N2CCOCCOCCN1Cc1cccc(n1)C2`, the GI50 was 44.5 µM (inactive) with OVCAR-3; > 100 µM (inactive) in the experiment on UACC-62; 83.2 µM (inactive) with SF-539; 85.1 µM (inactive) in the experiment with NCI-H522; 39.6 µM (inactive) with MOLT-4; > 100 µM (inactive) in the experiment on CAKI-1. Moreover, the GI50 in the experiment with CCRF-CEM is > 100 µM (inactive); in the experiment with RPMI-8226, 36.1 µM (inactive); in the experiment with LOX IMVI, > 100 µM (inactive); in the experiment with EKVX, > 100 µM (inactive); in the experiment with HCT-15, more than 100 µM; with KM12 it was > 100 µM (inactive). The GI50 with NCI-H226, in the experiment with DMS-273, in the experiment on U-251 and in the experiment with OVCAR-5 was > 100 µM (inactive) throughout.
Turning to `Cc1c(C(=O)CC(=O)C(=O)Nc2cccc(C(F)(F)F)c2)[n+]([O-])c2ccccc2[n+]1[O-]`, the GI50 is 1.66 µM (inactive) with OVCAR-3; 2.76 µM (inactive) with UACC-62; 3.13 µM (inactive) in the experiment on SF-539; 2.31 µM (inactive) in the experiment with NCI-H522; 2.71 µM (inactive) with MOLT-4; 6.47 µM (inactive) with CAKI-1. The GI50 in the experiment with CCRF-CEM is 2.51 µM (inactive); with RPMI-8226 it was 3.07 µM (inactive); in the experiment on LOX IMVI, 2.86 µM (inactive); with EKVX, 5.07 µM (inactive); in the experiment on HCT-15, 3.31 µM; in the experiment with KM12, 4.1 µM (inactive). Besides, the GI50 is 30.8 µM (inactive) in the experiment with NCI-H226, 3.41 µM (inactive) in the experiment with DMS-273, 4.03 µM (inactive) in the experiment on U-251 and 7.28 µM (inactive) in the experiment on OVCAR-5.
